Test results as given in patent publication US6461545B1, “Method of solubilizing and encapsulating itraconazole” (Emisphere Technologies, Inc., priority 1995, dated 2002).

Experiments:
[1] = Solubilization of itraconazole in aqueous acetic acid solutions, visually monitored for dissolution (Example 1); type: physicochemical; details: 100 mg itraconazole
Experimental: Acetic acid solutions were prepared in water to 10%, 20%, 50% and 75% concentrations (expressed as volume glacial acetic acid/total volume of solution ×100). 100 mg itraconazole solute were then mixed independently with 1 ml of each solution and visually monitored for dissolution. If necessary, additional 1 ml aliquots of each acetic acid solution were added until the itraconazole solute was dissolved.

[2] = cited from earlier work

CCC(C)n1ncn(-c2ccc(N3CCN(c4ccc(OCC5COC(Cn6cncn6)(c6ccc(Cl)cc6Cl)O5)cc4)CC3)cc2)c1=O (racemic) [itraconazole]
Solubility ([1]; 10% acetic acid v:v, 1 ml solvent, cold): Ins.
Solubility ([1]; 10% acetic acid v:v, 1 ml solvent, hot): Ins.
Solubility ([1]; 10% acetic acid v:v, 2 ml solvent, cold): Ins.
Solubility ([1]; 10% acetic acid v:v, 2 ml solvent, hot): Ins.
Solubility ([1]; 10% acetic acid v:v, 3 ml solvent, cold): Ins.
Solubility ([1]; 10% acetic acid v:v, 3 ml solvent, hot): Ins.
Solubility ([1]; 10% acetic acid v:v, 4 ml solvent, hot): Ins.
Solubility ([1]; 20% acetic acid v:v, 1 ml solvent, cold): Ins.
Solubility ([1]; 20% acetic acid v:v, 1 ml solvent, hot): Ins.
Solubility ([1]; 20% acetic acid v:v, 2 ml solvent, cold): Ins.
Solubility ([1]; 20% acetic acid v:v, 2 ml solvent, hot): Ins.
Solubility ([1]; 20% acetic acid v:v, 3 ml solvent, cold): Ins.
Solubility ([1]; 20% acetic acid v:v, 3 ml solvent, hot): Part
Solubility ([1]; 50% acetic acid v:v, 1 ml solvent, cold): Ins.
Solubility ([1]; 50% acetic acid v:v, 1 ml solvent, hot): Ins.
Solubility ([1]; 50% acetic acid v:v, 2 ml solvent, cold): Ins.
Solubility ([1]; 50% acetic acid v:v, 2 ml solvent, hot): Sol.
Solubility ([1]; 50% acetic acid v:v, 3 ml solvent, cold): Ins.
Solubility ([1]; 75% acetic acid v:v, 1 ml solvent, cold): Sol.
solubility in water [2]: less than 0.00001 g/ml
